These results are taken from patent US9309242B2, “Substituted pyrido[2,3-b]pyrazines as FGFR kinase inhibitors” (priority 2011, dated 2016).

In one assay the target is FGFR2 (h) (Homo sapiens, UniProt P21802). The assay can be described thus: FGFR2 (enzymatic assay), TR-FRET. It is filed as biochemical. Conditions: enzymatic assay; read-out: FGFR 2 pIC50 (converted). The gist of the method: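 Human FGFR2 (150 ng/ml) was incubated with 500 nM Btn-Flt3 substrate and 0.4 μM ATP in 50 mM HEPES pH 7.5, 6 mM MnCl2, 1 mM DTT, 0.1 mM Na3VO4, 0.01% Triton-X-100. Compound was present at 1% DMSO final.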
Chain of FGFR2 (h) (P21802 22-821): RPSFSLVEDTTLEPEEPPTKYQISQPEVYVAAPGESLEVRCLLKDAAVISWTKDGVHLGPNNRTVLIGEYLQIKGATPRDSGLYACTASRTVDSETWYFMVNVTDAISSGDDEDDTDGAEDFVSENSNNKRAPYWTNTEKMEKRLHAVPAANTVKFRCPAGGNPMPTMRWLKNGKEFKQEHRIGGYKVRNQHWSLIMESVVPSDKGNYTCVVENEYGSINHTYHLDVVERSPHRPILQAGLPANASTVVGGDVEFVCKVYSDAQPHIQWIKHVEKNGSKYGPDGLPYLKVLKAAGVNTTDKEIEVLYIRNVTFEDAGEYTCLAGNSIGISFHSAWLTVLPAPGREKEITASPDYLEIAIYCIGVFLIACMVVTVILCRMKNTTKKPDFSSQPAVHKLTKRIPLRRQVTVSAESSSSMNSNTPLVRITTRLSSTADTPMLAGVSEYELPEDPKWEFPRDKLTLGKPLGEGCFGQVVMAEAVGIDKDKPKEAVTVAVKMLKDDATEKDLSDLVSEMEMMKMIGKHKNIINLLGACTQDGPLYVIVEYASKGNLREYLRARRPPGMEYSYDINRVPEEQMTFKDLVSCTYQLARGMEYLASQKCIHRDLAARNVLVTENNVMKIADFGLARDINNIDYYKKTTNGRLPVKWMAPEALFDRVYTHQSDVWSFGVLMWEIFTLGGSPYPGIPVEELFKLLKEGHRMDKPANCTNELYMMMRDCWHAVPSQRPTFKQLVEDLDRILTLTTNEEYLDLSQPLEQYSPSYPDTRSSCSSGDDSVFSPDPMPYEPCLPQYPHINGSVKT
A general note: Time-resolved FRET reads energy transfer from a long-lived donor to a nearby acceptor.

A further assay has as its target KDR (h) (Homo sapiens, UniProt P35968). The assay can be described thus: KDR (VEGFR2) (enzymatic assay), TR-FRET. It is filed as biochemical. Conditions: read-out: VEGFR 2 (KDR) pIC50 (converted). The gist of the method:
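Enzyme at 150 ng/ml was incubated 120 min at room temperature with 500 nM Btn-Flt3 peptide and 3 μM ATP in 50 mM HEPES pH 7.5, 6 mM MnCl2, 1 mM DTT, 0.1 mM Na3VO4, 0.01% Triton-X-100, 1% DMSO final. EDTA stop with Eu-anti-P-Tyr/SA-XL-665, 60 min; TR-FRET read in RFU.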

The target of assay [1] is T1, Ba/F3-FGFR1-transfected cells (Homo sapiens, UniProt P11362).
T1 construct: BAF3-FGFR1 (MIN IL3) pIC50; other: minus IL3
T1 sequence (P11362 whole entry, change not shown): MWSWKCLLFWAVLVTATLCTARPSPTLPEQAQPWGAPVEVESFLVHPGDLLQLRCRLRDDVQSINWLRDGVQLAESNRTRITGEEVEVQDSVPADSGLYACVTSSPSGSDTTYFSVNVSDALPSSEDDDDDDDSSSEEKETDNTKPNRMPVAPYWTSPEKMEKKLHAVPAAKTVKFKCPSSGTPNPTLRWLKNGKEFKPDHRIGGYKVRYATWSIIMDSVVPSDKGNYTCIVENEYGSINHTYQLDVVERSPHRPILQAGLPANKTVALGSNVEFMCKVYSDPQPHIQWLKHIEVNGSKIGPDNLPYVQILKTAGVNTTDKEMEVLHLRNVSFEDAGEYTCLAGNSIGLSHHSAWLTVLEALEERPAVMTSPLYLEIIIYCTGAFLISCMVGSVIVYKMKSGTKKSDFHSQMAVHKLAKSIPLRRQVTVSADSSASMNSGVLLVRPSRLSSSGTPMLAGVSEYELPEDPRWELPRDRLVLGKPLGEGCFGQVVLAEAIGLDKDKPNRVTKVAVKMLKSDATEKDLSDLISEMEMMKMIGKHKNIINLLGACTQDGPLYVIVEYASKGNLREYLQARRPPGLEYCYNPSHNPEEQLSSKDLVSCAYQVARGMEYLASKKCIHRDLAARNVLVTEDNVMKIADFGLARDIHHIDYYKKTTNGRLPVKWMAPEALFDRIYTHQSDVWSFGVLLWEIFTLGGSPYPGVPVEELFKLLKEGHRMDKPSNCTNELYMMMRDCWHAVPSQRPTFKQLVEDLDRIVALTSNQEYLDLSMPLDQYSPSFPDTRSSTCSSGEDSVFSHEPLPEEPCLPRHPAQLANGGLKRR
As to the kind of experiment: Ba/F3-FGFR1 (minus IL3) cellular proliferation assay, Alamar Blue. In kind it is cell-based. The method in brief:
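Compound is dispensed first, then FGFR1-transfected Ba/F3 cells are added at 20000 per well in phenol red-free RPMI-1640 containing 10% FBS. After 24 h at 37 °C, Alamar Blue is added for 4 h and fluorescence is measured at 540/590 nm.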
(In general: The colour change of resazurin is a common sign of viable cells or microbes.)

Assay [2] deals with Ba/F3-FGFR3-transfected cells. The assay can be described thus: Ba/F3-FGFR3 (plus IL3) cellular proliferation assay, counterscreen with 10 ng/ml murine IL3. It is filed as cell-based. The following applies: plus IL3 (10 ng/ml murine IL3, counterscreen); read-out: BAF3-FGFR3 (PLUS IL3) pIC50 (converted). The gist of the method: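 Compound dilutions were dispensed first, then 20000 FGFR3-transfected Ba/F3 cells per well in serum-containing RPMI-1640 were added. After 24 h incubation at 37° C, Alamar Blue was applied for 4 h before relative fluorescence units were recorded. In the minus-IL3 format cells grow without cytokine; the other format contains 10 ng/ml murine IL3.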

In assay [3] the target is T2, Ba/F3-KDR-transfected cells (Homo sapiens, UniProt P35968).
T2 construct: BAF3-KDR (MIN IL3) pIC50; other: minus IL3
T2 sequence (P35968 whole entry, change not shown): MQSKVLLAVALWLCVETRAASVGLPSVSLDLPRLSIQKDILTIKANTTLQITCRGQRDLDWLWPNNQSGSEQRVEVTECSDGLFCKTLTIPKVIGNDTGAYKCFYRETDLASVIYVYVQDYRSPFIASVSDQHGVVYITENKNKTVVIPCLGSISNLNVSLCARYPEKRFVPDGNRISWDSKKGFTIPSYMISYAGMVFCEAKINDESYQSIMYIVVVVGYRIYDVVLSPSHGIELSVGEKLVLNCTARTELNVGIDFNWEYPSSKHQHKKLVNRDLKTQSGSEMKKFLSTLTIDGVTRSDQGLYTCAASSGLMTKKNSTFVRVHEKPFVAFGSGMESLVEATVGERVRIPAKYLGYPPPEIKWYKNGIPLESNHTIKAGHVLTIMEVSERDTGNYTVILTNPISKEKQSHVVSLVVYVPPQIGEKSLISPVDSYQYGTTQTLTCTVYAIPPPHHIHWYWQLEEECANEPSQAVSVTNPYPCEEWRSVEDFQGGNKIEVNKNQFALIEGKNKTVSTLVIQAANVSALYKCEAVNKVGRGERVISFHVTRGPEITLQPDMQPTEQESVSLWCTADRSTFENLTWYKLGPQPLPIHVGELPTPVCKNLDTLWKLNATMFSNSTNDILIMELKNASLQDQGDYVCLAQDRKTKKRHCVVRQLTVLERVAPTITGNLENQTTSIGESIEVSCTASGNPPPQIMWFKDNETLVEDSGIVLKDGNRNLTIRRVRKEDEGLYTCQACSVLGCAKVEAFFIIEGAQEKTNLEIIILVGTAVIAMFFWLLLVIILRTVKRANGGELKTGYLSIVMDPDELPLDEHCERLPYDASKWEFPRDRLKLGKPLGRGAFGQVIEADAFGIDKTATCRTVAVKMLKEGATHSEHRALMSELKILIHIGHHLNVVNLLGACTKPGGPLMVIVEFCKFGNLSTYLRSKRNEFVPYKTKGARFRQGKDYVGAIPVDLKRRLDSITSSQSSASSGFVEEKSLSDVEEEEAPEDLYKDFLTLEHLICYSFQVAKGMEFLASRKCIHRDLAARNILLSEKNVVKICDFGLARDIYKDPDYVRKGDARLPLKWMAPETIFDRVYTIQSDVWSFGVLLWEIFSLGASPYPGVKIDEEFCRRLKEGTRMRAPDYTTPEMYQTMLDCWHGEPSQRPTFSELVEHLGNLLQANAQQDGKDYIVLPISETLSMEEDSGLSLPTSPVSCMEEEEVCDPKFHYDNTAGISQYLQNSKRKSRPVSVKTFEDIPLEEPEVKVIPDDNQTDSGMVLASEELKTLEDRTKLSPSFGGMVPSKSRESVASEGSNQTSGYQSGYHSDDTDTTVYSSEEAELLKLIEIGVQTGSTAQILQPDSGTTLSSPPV
As to the kind of experiment: Ba/F3-KDR (minus IL3) cellular proliferation assay, Alamar Blue. In kind it is cell-based. The gist of the method:
(§1)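 Ba/F3-KDR cells (20000 per well) in phenol red-free RPMI-1640 with 10% FBS were exposed to compound for 24 hours at 37° C, 5% CO2. Alamar Blue (resazurin) was then added for 4 hours, and fluorescence was read at ex. 540 nm/em. 590 nm.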

Assay [4] has as its system Ba/F3-KDR-transfected cells. As to the kind of experiment: Ba/F3-KDR (plus IL3) cellular proliferation assay, counterscreen with 10 ng/ml murine IL3. Conditions: plus IL3 (10 ng/ml murine IL3, counterscreen); read-out: BAF3-KDR (PLUS IL3) pIC50 (converted). It is filed as cell-based. The method in brief: as §1
(In general: The purpose of a counterscreen is to sort out artefacts and off-target activity.)

The target in assay [5] is Ba/F3-FGFR4-transfected cells (Homo sapiens, UniProt P22455). As to the kind of experiment: Ba/F3-FGFR4 cellular proliferation assay, Alamar Blue. It is filed as cell-based. The method in brief: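 Compounds in DMSO were dispensed before 20000 Ba/F3-FGFR4-transfected cells per well were added in phenol red free RPMI-1640 with 10% FBS, 2 mM L-Glutamine. After 24 hours at 37° C and 5% CO2, Alamar Blue was added for 4 hours and fluorescence read (ex. 540 nm, em. 590 nm).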
Chain of Ba/F3-FGFR4-transfected cells (P22455 whole entry, change not shown): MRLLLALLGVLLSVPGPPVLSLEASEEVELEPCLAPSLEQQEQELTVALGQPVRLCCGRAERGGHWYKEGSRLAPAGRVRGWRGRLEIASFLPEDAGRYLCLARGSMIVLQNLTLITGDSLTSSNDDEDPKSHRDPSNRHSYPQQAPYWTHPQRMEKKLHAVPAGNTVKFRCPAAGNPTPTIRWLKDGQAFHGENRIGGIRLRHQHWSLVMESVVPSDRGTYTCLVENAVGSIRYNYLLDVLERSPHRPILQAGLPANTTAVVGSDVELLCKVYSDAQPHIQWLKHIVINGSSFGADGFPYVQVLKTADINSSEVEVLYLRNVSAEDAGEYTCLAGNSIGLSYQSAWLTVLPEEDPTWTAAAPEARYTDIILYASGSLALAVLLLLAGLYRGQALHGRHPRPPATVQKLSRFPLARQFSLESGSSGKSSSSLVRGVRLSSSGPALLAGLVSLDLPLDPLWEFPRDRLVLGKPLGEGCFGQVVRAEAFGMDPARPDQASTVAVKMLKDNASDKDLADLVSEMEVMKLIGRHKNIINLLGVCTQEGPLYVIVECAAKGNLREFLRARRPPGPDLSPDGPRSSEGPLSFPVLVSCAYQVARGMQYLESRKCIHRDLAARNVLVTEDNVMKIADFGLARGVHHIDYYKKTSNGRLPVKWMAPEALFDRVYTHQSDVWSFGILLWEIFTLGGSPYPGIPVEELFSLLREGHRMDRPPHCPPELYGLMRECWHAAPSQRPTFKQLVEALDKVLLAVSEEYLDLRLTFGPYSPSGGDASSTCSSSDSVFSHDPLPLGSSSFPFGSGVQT

Chain of KDR (h) (P35968 20-1356): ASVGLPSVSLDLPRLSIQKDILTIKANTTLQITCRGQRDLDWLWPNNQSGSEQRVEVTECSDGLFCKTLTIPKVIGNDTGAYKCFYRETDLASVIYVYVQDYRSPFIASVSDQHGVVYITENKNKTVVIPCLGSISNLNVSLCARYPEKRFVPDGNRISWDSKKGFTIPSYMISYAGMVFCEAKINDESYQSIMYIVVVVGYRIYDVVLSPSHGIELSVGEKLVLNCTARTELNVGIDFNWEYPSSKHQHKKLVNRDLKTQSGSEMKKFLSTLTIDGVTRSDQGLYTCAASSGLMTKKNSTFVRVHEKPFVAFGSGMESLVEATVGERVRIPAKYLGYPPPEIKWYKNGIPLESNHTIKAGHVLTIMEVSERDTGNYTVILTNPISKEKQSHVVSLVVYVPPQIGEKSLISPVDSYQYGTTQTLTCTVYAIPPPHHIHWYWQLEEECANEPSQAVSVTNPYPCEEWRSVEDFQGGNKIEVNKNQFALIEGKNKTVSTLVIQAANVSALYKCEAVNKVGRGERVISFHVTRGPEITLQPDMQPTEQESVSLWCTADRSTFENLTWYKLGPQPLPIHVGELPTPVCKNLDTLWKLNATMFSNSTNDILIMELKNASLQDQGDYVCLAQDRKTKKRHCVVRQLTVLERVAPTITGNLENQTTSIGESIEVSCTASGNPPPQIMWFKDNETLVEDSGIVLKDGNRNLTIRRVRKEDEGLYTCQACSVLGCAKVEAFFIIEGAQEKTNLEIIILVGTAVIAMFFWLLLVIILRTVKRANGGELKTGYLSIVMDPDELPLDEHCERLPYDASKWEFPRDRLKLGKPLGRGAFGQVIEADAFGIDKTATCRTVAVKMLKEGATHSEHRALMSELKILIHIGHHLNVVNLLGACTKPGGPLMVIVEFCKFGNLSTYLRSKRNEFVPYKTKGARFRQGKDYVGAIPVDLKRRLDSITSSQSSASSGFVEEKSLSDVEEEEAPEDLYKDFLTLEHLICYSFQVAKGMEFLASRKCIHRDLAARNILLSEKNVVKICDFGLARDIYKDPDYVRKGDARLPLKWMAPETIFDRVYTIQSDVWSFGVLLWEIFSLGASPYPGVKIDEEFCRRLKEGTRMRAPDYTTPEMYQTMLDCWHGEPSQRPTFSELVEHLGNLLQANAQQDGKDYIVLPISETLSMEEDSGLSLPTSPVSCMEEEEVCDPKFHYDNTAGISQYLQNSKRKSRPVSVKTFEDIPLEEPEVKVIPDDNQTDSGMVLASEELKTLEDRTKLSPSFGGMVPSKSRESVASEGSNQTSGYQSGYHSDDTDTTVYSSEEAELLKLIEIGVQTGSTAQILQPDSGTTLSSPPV

Turning to `COc1cc(OC)c(F)c(N(Cc2c[nH]nn2)c2ccc3ncc(-c4cnn(C)c4)nc3n2)c1` [Compound 258], the IC50 on FGFR2 (h) is 0.00145 µM; on KDR (h), 0.0123 µM; in assay [2], more than 10 µM; in assay [4] it was more than 10 µM. Besides, in assay [1], the “BAF3-FGFR1 (MIN IL3) pIC50” value was 7.38. The “BAF3-KDR (MIN IL3) pIC50” value in assay [3] came to 6.02. Besides, the “BAF3-FGFR4 pIC50” value in assay [5] is 7.03.

For the molecule `COc1cc(OC)cc(N(CC(C)(C)O)c2ccc3ncc(-c4cnn(C)c4)nc3n2)c1` [Compound 276], the IC50 was 0.00912 µM at FGFR2 (h), 0.141 µM at KDR (h), more than 10 µM in assay [2] and more than 10 µM in assay [4]. Further, the “BAF3-FGFR1 (MIN IL3) pIC50” value in assay [1] was 6.28. The “BAF3-KDR (MIN IL3) pIC50” value in assay [3] is listed as 5.02. For the same molecule, the “BAF3-FGFR4 pIC50” value in assay [5] amounted to 5.82.

Take `COc1cc(/N=c2\ccc3ncc(-c4cnn(C)c4)nc3n2CC(C)(C)O)c(F)c(OC)c1` [Compound 246]: the IC50 at FGFR2 (h) is 0.00151 µM; at KDR (h) it was 0.00759 µM; in assay [2], more than 10 µM; in assay [4], more than 10 µM. Further, the “BAF3-FGFR1 (MIN IL3) pIC50” value in assay [1] turned out to be 7.25. Moreover, the “BAF3-KDR (MIN IL3) pIC50” value in assay [3] came to 5.83. Also, the “BAF3-FGFR4 pIC50” value in assay [5] is 6.71.

With `COc1cc(OC)c(F)c(N(CCS(C)(=O)=O)c2ccc3ncc(-c4cnn(CCS(C)(=O)=O)c4)nc3n2)c1` [Compound 266], the IC50 on FGFR2 (h) was 0.00224 µM; on KDR (h), 0.0347 µM; in assay [2], more than 10 µM; in assay [4] it was more than 10 µM. In assay [1], the “BAF3-FGFR1 (MIN IL3) pIC50” value amounted to 6.29. For the same molecule, in assay [3], the “BAF3-KDR (MIN IL3) pIC50” value is less than 5. Further, in assay [5], the “BAF3-FGFR4 pIC50” value was found to be 5.78.

As to `COc1cc(OC)c(F)c(N(Cc2ncc[nH]2)c2ccc3ncc(N4C[C@@H](C)N[C@@H](C)C4)nc3n2)c1` [Compound 259], the IC50 at FGFR2 (h) is 0.00288 µM; at KDR (h), 0.309 µM; in assay [2], more than 10 µM; in assay [4] it was more than 10 µM. For the same molecule, in assay [1], the “BAF3-FGFR1 (MIN IL3) pIC50” value is 7.33. In addition, in assay [3], the “BAF3-KDR (MIN IL3) pIC50” value is reported as 5.13. Also, the “BAF3-FGFR4 pIC50” value in assay [5] worked out at 6.19.

Regarding `COc1cc(OC)cc(N(CCNC2COC2)c2ccc3ncc(-c4cnn(C)c4)nc3n2)c1` [Compound 290], the IC50 at FGFR2 (h) is 0.00447 µM; on KDR (h) it was 0.055 µM; in assay [2], more than 10 µM; in assay [4] it was more than 10 µM. Further, the “BAF3-FGFR1 (MIN IL3) pIC50” value in assay [1] was found to be 7.09. In addition, the “BAF3-KDR (MIN IL3) pIC50” value in assay [3] was found to be 5.81. Also, the “BAF3-FGFR4 pIC50” value in assay [5] was found to be 6.32.
